The record followed here is patent US9085557B2, “Quinolylpiperazino substituted thiolactone compounds and process for the preparation thereof” (Council of Scientific and Industrial Research, priority 2010, dated 2015).

SMILES strings stand for the structures. ≈ marks a conversion by molar mass, not a printed value.

In one test the test system is M. tuberculosis -617 (MDR- strain). Description: microbe, parasite or virus in culture. The test is classed as cell-based, Mycobacterium tuberculosis. The conditions noted are these: Mycobacterium tuberculosis, 504 h.
On to `C=C/C(C)=C/[C@@]1(C)SC(=O)C(C)=C1O` [Thiolactomycin, reference compound], for which the MIC was found to be 25 µg/mL (≈ 119 µM). The same measure, in the same setting: next, `NNC(=O)c1ccncc1` [Isoniazid, reference compound]: 128 µg/mL (≈ 933 µM).

The next test deals with M. tuberculosis H37Rv (ATCC 27294). The test can be described thus: MIC determination by broth dilution against M. tuberculosis H37Rv. It counts as cell-based, Mycobacterium tuberculosis. The conditions noted are these: M. tuberculosis H37Rv, broth dilution, 3 weeks at 37° C., read visually (no turbidity). For orientation: In broth dilution the organism is exposed to a series of concentrations in liquid medium.
`CC1=C(OCCCCCCCCCCN2CCN(c3ccnc4cc(C(F)(F)F)ccc34)CC2)C(C)SC1=O` (stereo not shown) [Compound 3e, 3,5-dimethyl-4-[(10-4-[7-(trifluoromethyl)-4-quinolyl]piperazinodecyl)oxy]-5H-thiophen-2-one] returned an MIC of 16 µg/mL (≈ 28.4 µM). For `CC1=C(OCCCCCCCCCCN2CCCN(c3ccnc4cc(C(F)(F)F)ccc34)CC2)C(C)SC1=O` (stereo not shown) [Compound 5e, 3,5-dimethyl-4-[(10-4-[7-(trifluoromethyl)-4-quinolyl]-1,4-diazepan-1-yldecyl)oxy]-5H-thiophen-2-one], the MIC is 8 µg/mL (≈ 13.8 µM). The same measure, in the same setting: next, `CC1=C(OCCCCCCCCN2CCN(c3ccnc4cc(C(F)(F)F)ccc34)CC2)C(C)SC1=O` (stereo not shown) [Compound 3c, 3,5-dimethyl-4-[(8-4-[7-(trifluoromethyl)-4-quinolyl]piperazinooctyl)oxy]-5H-thiophen-2-one]: 16 µg/mL (≈ 29.9 µM); `CC1=C(OCCCCCN2CCN(c3ccnc4cc(C(F)(F)F)ccc34)CC2)C(C)SC1=O` (stereo not shown) [Compound 3a, 3,5-dimethyl-4-[(5-4-[7-(trifluoromethyl)-4-quinolyl]piperazinopentyl)oxy]-5H-thiophen-2-one]: 16 µg/mL (≈ 32.4 µM); `C=C/C(C)=C/[C@@]1(C)SC(=O)C(C)=C1O` [Thiolactomycin, reference compound]: 25 µg/mL (≈ 119 µM).

`CC1=C(OCCCCCCCCCN2CCN(c3ccnc4cc(C(F)(F)F)ccc34)CC2)C(C)SC1=O` (stereo not shown) [Compound 3d, 3,5-dimethyl-4-[(9-4-[7-(trifluoromethyl)-4-quinolyl]piperazinononyl)oxy]-5H-thiophen-2-one] returned an MIC of 16 µg/mL (≈ 29.1 µM).

The compound `CC1=C(OCCCCCCN2CCN(c3ccnc4cc(C(F)(F)F)ccc34)CC2)C(C)SC1=O` (stereo not shown) [Compound 3b, 3,5-dimethyl-4-[(6-4-[7-(trifluoromethyl)-4-quinolyl]piperazinohexyl)oxy]-5H-thiophen-2-one] had an MIC of 16 µg/mL (≈ 31.5 µM).

In the case of `CC1=C(OCCCCCCCCCN2CCCN(c3ccnc4cc(C(F)(F)F)ccc34)CC2)C(C)SC1=O` (stereo not shown) [Compound 5d, 3,5-dimethyl-4-[(9-4-[7-(trifluoromethyl)-4-quinolyl]-1,4-diazepan-1-ylnonyl)oxy]-5H-thiophen-2-one], the MIC came out at 16 µg/mL (≈ 28.4 µM).

In the case of `CC1=C(OCCCCCN2CCCN(c3ccnc4cc(C(F)(F)F)ccc34)CC2)C(C)SC1=O` (stereo not shown) [Compound 5a, 3,5-dimethyl-4-[(5-4-[7-(trifluoromethyl)-4-quinolyl]-1,4-diazepan-1-ylpentyl)oxy]-5H-thiophen-2-one], the MIC was 16 µg/mL (≈ 31.5 µM). For the compound `CC1=C(OCCCCCCCCCCCCN2CCCN(c3ccnc4cc(C(F)(F)F)ccc34)CC2)C(C)SC1=O` (stereo not shown) [Compound 5f, 3,5-dimethyl-4-[(12-4-[7-(trifluoromethyl)-4-quinolyl]-1,4-diazepan-1-yldodecyl)oxy]-5H-thiophen-2-one], the MIC came to 8 µg/mL (≈ 13.2 µM). `CC1=C(OCCCCCCN2CCCN(c3ccnc4cc(C(F)(F)F)ccc34)CC2)C(C)SC1=O` (stereo not shown) [Compound 5b, 3,5-dimethyl-4-[(6-4-[7-(trifluoromethyl)-4-quinolyl]-1,4-diazepan-1-ylhexyl)oxy]-5H-thiophen-2-one]: the MIC stood at 16 µg/mL (≈ 30.7 µM).

The compound `CC1=C(OCCCCCCCCN2CCCN(c3ccnc4cc(C(F)(F)F)ccc34)CC2)C(C)SC1=O` (stereo not shown) [Compound 5c, 3,5-dimethyl-4-[(8-4-[7-(trifluoromethyl)-4-quinolyl]-1,4-diazepan-1-yloctyl)oxy]-5H-thiophen-2-one] showed an MIC of 16 µg/mL (≈ 29.1 µM).

The same test, now with this note: Mycobacterium tuberculosis, 504 h; M. tuberculosis H37Rv, broth dilution, 3 weeks at 37° C., read visually (no turbidity); read-out: MIC.
`CC1=C(OCCCCCCCCN2CCN(c3ccnc4cc(Cl)ccc34)CC2)C(C)SC1=O` (stereo not shown) [Compound 4c, 3,5-dimethyl-4-(8-[4-(7-chloro-4-quinolyl)piperazino]octyloxy)-5H-thiophen-2-one]: the MIC was 8 µg/mL (≈ 15.9 µM). For `C=C/C(C)=C/[C@@]1(C)SC(=O)C(C)=C1O` [Thiolactomycin, reference compound], the MIC amounted to 25 µg/mL (≈ 119 µM). Turning to `CC1=C(OCCCCCCCCCCCCN2CCN(c3ccnc4cc(Cl)ccc34)CC2)C(C)SC1=O` (stereo not shown) [Compound 4f, 3,5-dimethyl-4-(12-[4-(7-chloro-4-quinolyl)piperazino]dodecyloxy)-5H-thiophen-2-one], the MIC turned out to be 8 µg/mL (≈ 14.3 µM).

As to `CC1=C(OCCCCCCN2CCN(c3ccnc4cc(Cl)ccc34)CC2)C(C)SC1=O` (stereo not shown) [Compound 4b, 3,5-dimethyl-4-(6-[4-(7-chloro-4-quinolyl)piperazino]hexyloxy)-5H-thiophen-2-one], the MIC came out at 16 µg/mL (≈ 33.8 µM). As for `CC1=C(OCCCCCCCCCCCCN2CCCN(c3ccnc4cc(Cl)ccc34)CC2)C(C)SC1=O` (stereo not shown) [Compound 6f, 3,5-dimethyl-4-(12-[4-(7-chloro-4-quinolyl)-1,4-diazepan-1-yl]dodecyloxy)-5H-thiophen-2-one], the MIC amounted to 4 µg/mL (≈ 6.99 µM). As for `CC1=C(OCCCCCN2CCCN(c3ccnc4cc(Cl)ccc34)CC2)C(C)SC1=O` (stereo not shown) [Compound 6a, 3,5-dimethyl-4-(5-[4-(7-chloro-4-quinolyl)-1,4-diazepan-1-yl]pentyloxy)-5H-thiophen-2-one], the MIC came to 16 µg/mL (≈ 33.8 µM). The same measure, in the same setting: the figure for `NNC(=O)c1ccncc1` [Isoniazid, reference compound] is 0.5 µg/mL (≈ 3.65 µM). On to `CC1=C(OCCCCCN2CCN(c3ccnc4cc(Cl)ccc34)CC2)C(C)SC1=O` (stereo not shown) [Compound 4a, 3,5-dimethyl-4-(5-[4-(7-chloro-4-quinolyl)piperazino]pentyloxy)-5H-thiophen-2-one], for which the MIC was 16 µg/mL (≈ 34.8 µM). On to `CC1=C(OCCCCCCCCCCN2CCN(c3ccnc4cc(Cl)ccc34)CC2)C(C)SC1=O` (stereo not shown) [Compound 4e, 3,5-dimethyl-4-(10-[4-(7-chloro-4-quinolyl)piperazino]decyloxy)-5H-thiophen-2-one], for which the MIC is 8 µg/mL (≈ 15.1 µM). With `CC1=C(OCCCCCCN2CCCN(c3ccnc4cc(Cl)ccc34)CC2)C(C)SC1=O` (stereo not shown) [Compound 6b, 3,5-dimethyl-4-(6-[4-(7-chloro-4-quinolyl)-1,4-diazepan-1-yl]hexyloxy)-5H-thiophen-2-one], the MIC is 8 µg/mL (≈ 16.4 µM). On the same count and under the same terms, next, `CC1=C(OCCCCCCCCN2CCCN(c3ccnc4cc(Cl)ccc34)CC2)C(C)SC1=O` (stereo not shown) [Compound 6c, 3,5-dimethyl-4-(8-[4-(7-chloro-4-quinolyl)-1,4-diazepan-1-yl]octyloxy)-5H-thiophen-2-one]: 16 µg/mL (≈ 31 µM). On the same count and under the same terms, next, `CC1=C(OCCCCCCCCCN2CCCN(c3ccnc4cc(Cl)ccc34)CC2)C(C)SC1=O` (stereo not shown) [Compound 6d, 3,5-dimethyl-4-(9-[4-(7-chloro-4-quinolyl)-1,4-diazepan-1-yl]nonyloxy)-5H-thiophen-2-one]: 8 µg/mL (≈ 15.1 µM); `CC1=C(OCCCCCCCCCN2CCN(c3ccnc4cc(Cl)ccc34)CC2)C(C)SC1=O` (stereo not shown) [Compound 4d, 3,5-dimethyl-4-(9-[4-(7-chloro-4-quinolyl)piperazino]nonyloxy)-5H-thiophen-2-one]: 8 µg/mL (≈ 15.5 µM). For `CC1=C(OCCCCCCCCCCN2CCCN(c3ccnc4cc(Cl)ccc34)CC2)C(C)SC1=O` (stereo not shown) [Compound 6e, 3,5-dimethyl-4-(10-[4-(7-chloro-4-quinolyl)-1,4-diazepan-1-yl]decyloxy)-5H-thiophen-2-one], the MIC amounted to 16 µg/mL (≈ 29.4 µM).

In a further test the test system is M. tuberculosis XDR-1 (XDR- strain). The test can be described thus: microbe, parasite or virus in culture. It counts as cell-based, Mycobacterium tuberculosis. The conditions noted are these: Mycobacterium tuberculosis, 504 h.
The compound `C=C/C(C)=C/[C@@]1(C)SC(=O)C(C)=C1O` [Thiolactomycin, reference compound] yielded an MIC of 25 µg/mL (≈ 119 µM).

`NNC(=O)c1ccncc1` [Isoniazid, reference compound] displayed an MIC of 0.5 µg/mL (≈ 3.65 µM).

The subject of the next test is M. tuberculosis H37Rv. Description: In vivo efficacy in murine model of M. tuberculosis H37Rv infection. The arrangement: species or system mice (BALB/c). The following applies: BALB/c mice, intranasal infection, treatment from 1 week post infection, PO once daily for 4 weeks; RIF 20 mg/kg, 3f 25 mg/kg. As to the method:
The Compound 3f used in this study ([…]). The compound 3f was tested in vivo at 25 mg/kg. Rifampicin at 20 mg/kg was also tested as positive control. For in vivo studies compound and rifampicin was dissolved in pure DMSO and formulation was prepared 50% PEG in water for oral administration. The final concentration of DMSO was less than 0.1% v/v.
The institutional animal Ethics committee of the Indian Institute of Integrative Medicine (CSIR, Jammu) approved all experimental protocols with animals and the use of animals. The animals were bred and maintained under standard husbandry conditions; viz. humidity, temperature (25±2° C.). 8-week-old female (BALB/c) mice 20-22 gm by weight were used for the efficacy studies. Animals were allowed 1 week of acclimation before intake into experimental studies. Feed and water were given ad libitum.
Infection of M. tuberculosis:
M. tuberculosis (H37Rv) for infection was grown by the culturing of bacteria from Lowenstein-Jensen slant in Middlebrooke 7H9 medium on a rotary shaker for 10 days at 37° C. […] The mice were sacrificed after week post infection (early control), and bacterial numbers in the lungs were determined by macerating the organs (lung) and plating serial tenfold serial dilution on Middlebrook 7H10 agar plates in triplicates. […]
Eight infected mice were sacrificed from the control group 7 day after the infection (before the initiation of treatment) to obtain the initial CFU load of M. tuberculosis H37Rv at the initiation of treatment. […] Viable bacteria were quantitated by plating 10-fold serial dilutions in duplicates on Middlebrook, 7H10 agar supplemented with 10% OADC (oleic acid albumin dextrose catalase, Becton Dickinson, Sparks, Md.) and incubated at 37° C. in 5% CO2 for 4-6 weeks. CFU per organ sample was counted and expressed as log10 CFU per organ. CFU during in-vivo studies were determined on Middlebrook 7H10 plates supplement with 10% OADC containing Vancomycin 10 μg/ml, Amphoterecin 10 μg/ml, Nalidaxic acid 25 μg/ml. […]
With `CO[C@H]1/C=C/O[C@@]2(C)Oc3c(C)c(O)c4c(O)c(c(/C=N/N5CCN(C)CC5)c(O)c4c3C2=O)NC(=O)/C(C)=C\C=C\[C@H](C)[C@H](O)[C@@H](C)[C@@H](O)[C@@H](C)[C@H](OC(C)=O)[C@@H]1C` [RIF, Rifampicin, reference compound], the “Log10 CFU/left Lung (mean ± SD)” value stood at 2.0 ± 0.41 Log10 CFU/left Lung.
